# Columns and labels:
# Format in all cases: cell-based, human
# [1] = system: histone-mediated RBC aggregation; test: Histone-mediated erythrocyte aggregation (flow cytometry, scanning EM)
# Experimental: (§1) Human erythrocytes (RBC) were incubated for 1 h at 37° C. alone (‘Saline’ control) or in the presence of histones (400 μg ml^−1) with or without mCBS (200 μg ml^−1). a, Percentage of RBC aggregation measured by flow cytometry based on forward (FSC) and side (SSC) scatter parameters and an appropriate gating strategy to discriminate aggregated from normal (non-aggregated) RBC. b, Scanning electron micrographs depicting level of RBC aggregation at low and high magnification following the three treatments depicted in (a). c, Concentration dependent inhibition of histone-mediated RBC aggregation by mCBS and MTS, in this case RBC aggregation being calculated by flow cytometry as fold increase in RBC auto-fluorescence relative to RBC in the absence of histones. The fold increase values also provide an estimate of the number of RBC in each aggregate. d, Retention of RBC in an artificial spleen that measures RBC deformability. RBC were incubated with increasing concentrations of histones for 1 h and, at the highest concentration used (400 μg ml^−1), also incubated with either mCBS or MTS (100 and 200 μg ml^−1), prior to passage through the artificial spleen. Data are mean±s.e.m. (n=3 biological replicates). ***P<0.001, ****P<0.0001 (one way ANOVA with Dunnett's multiple comparisons test).
# In vitro erythrocyte microscopy, aggregation, fragility and deformability assays. […] J Biol Chem 289, 19531-19537 (2014)). Similarly, erythrocyte fragility induced by histones, in the presence or absence of inhibitors, was quantified using a sheer stress assay that we developed recently (Kordbacheh, F., O'Meara, C. H., Coupland, L. A., Lelliott, P. M. & Parish, C. R. Extracellular histones induce erythrocyte fragility and anemia. Blood 130, 2884-2888 (2017)). Finally, the reduced deformability of erythrocytes in the presence of histones and the effect of inhibitors on this process was assessed by measuring the passage of erythrocytes through an artificial human spleen (Kordbacheh, F., O'Meara, C. H., Coupland, L. A., Lelliott, P. M. & Parish, C. R. Extracellular histones induce erythrocyte fragility and anemia. Blood 130, 2884-2888 (2017); and Deplaine, G. et al. The sensing of poorly deformable red blood cells by the human spleen can be mimicked in vitro. Blood 117, e88-95 (2011)).
# [2] = system: histone-induced erythrocyte rigidity; test: Erythrocyte deformability, passage through artificial spleen; conditions: histones 400 μg ml^−1, compounds 100 and 200 μg ml^−1, FIG. 3d
# Experimental: as §1, with “RBC were incubated with increasing concentrations of histones for 1 h and, at the highest concentration used (400 μg ml^−1), also incubated with either mCBS or MTS (100 and 200 μg ml^−1), prior to passage through the artificial spleen. Data are mean±s.e.m. (n=3 biological replicates). ***P<0.001, ****P<0.0001 (one way ANOVA with Dunnett's multiple comparisons test).” left out
# In vitro erythrocyte microscopy, aggregation, fragility and deformability assays. […] Similarly, erythrocyte fragility induced by histones, in the presence or absence of inhibitors, was quantified using a sheer stress assay that we developed recently (Kordbacheh, F., O'Meara, C. H., Coupland, L. A., Lelliott, P. M. & Parish, C. R. Extracellular histones induce erythrocyte fragility and anemia. Blood 130, 2884-2888 (2017)). […]
# [3] = system: anti-proliferative effect of histones on HMEC-1; test: HMEC-1 proliferation (3H-thymidine) after histone exposure; conditions: compounds 100 μg ml^−1, histones 400 μg ml^−1, FIG. 8b
smiles,measurement,setting,value
"O=S(=O)(O)OC[C@H]1O[C@H](O[C@H]2[C@H](OS(=O)(=O)O)[C@@H](OS(=O)(=O)O)C(OS(=O)(=O)O)O[C@@H]2COS(=O)(=O)O)[C@H](OS(=O)(=O)O)[C@@H](OS(=O)(=O)O)[C@@H]1O[C@H]1O[C@H](COS(=O)(=O)O)[C@@H](OS(=O)(=O)O)[C@H](OS(=O)(=O)O)[C@H]1OS(=O)(=O)O (stereo partly shown) [MTS, maltotriose per-O-sulfate]",Effectiveness of MTS relative to mCBS in preventing RBC aggregation,[1]; FIG. 3c,~2 fold
same,Prevention of histone-mediated RBC aggregation (auto-fluorescence),"[1]; histones 400 μg ml^−1, FIG. 3c",prevented aggregation in a concentration dependent manner
same,Ability of erythrocytes to passage through an artificial spleen,[2],totally restored
same,Neutralization of anti-proliferative effect of histones on HMEC-1 monolayers,[3],completely neutralized

# Reference: patent US12239650B2, “Compounds for treating and preventing net associated complications” (The Australian National University, priority 2019, dated 2025)
